Measurements: PubChem BioAssay (NCI)
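Five concentrations, 48 hours, 96-well plates. GI50 = concentration required for 50% inhibition of growth. At the TGI there is no net growth.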

Key:
Experiment in all cases: growth of human tumour cells (NCI), 48 h
786-0 renal = system: 786-0 renal
A498 renal = system: A498 renal
A549 NSCLC = system: A549 NSCLC
ACHN renal = system: ACHN renal
BT-549 breast = system: BT-549 breast
CAKI-1 renal = system: CAKI-1 renal
CCRF-CEM leukemia = system: CCRF-CEM leukemia
COLO 205 colon = system: COLO 205 colon
DU-145 prostate = system: DU-145 prostate
EKVX NSCLC = system: EKVX NSCLC
HCC-2998 colon = system: HCC-2998 colon
HCT-116 colon = system: HCT-116 colon
HCT-15 colon = system: HCT-15 colon
HL-60(TB) leukemia = system: HL-60(TB) leukemia
HOP-62 NSCLC = system: HOP-62 NSCLC
HOP-92 NSCLC = system: HOP-92 NSCLC
HS 578T breast = system: HS 578T breast
HT29 colon = system: HT29 colon
IGROV1 ovarian = system: IGROV1 ovarian
K-562 leukemia = system: K-562 leukemia
KM12 colon = system: KM12 colon
LOX IMVI melanoma = system: LOX IMVI melanoma
M14 melanoma = system: M14 melanoma
MALME-3M melanoma = system: MALME-3M melanoma
MCF7 breast = system: MCF7 breast
MDA-MB-231 breast = system: MDA-MB-231 breast
MDA-MB-435 = system: MDA-MB-435
MDA-MB-468 breast = system: MDA-MB-468 breast
MOLT-4 leukemia = system: MOLT-4 leukemia

Work on `COC(=O)C[C@](O)(CCCC(C)C)C(=O)O[C@H]1C(OC)=C[C@@]23CCCN2CCc2cc4c(cc2[C@@H]13)OCO4` yielded a GI50 (786-0 renal) of 1960 nM, a TGI (786-0 renal) of 14300 nM and a GI50 (A498 renal) of 776 nM. For the same molecule, the TGI (A498 renal) was 5780 nM, the GI50 (A549 NSCLC) was 1390 nM and the TGI (A549 NSCLC) was 17700 nM. The GI50 (ACHN renal) was 1210 nM, the TGI (ACHN renal) was 6610 nM and the GI50 (BT-549 breast) was 995 nM. The TGI (BT-549 breast) was 3740 nM, the GI50 (CAKI-1 renal) was 2410 nM and the TGI (CAKI-1 renal) was 35200 nM. For the same molecule, the GI50 (CCRF-CEM leukemia) was 1020 nM, the TGI (CCRF-CEM leukemia) was 7080 nM and the GI50 (COLO 205 colon) was 1790 nM. It also gave a TGI (COLO 205 colon) of 8730 nM, a GI50 (DU-145 prostate) of 1910 nM and a TGI (DU-145 prostate) of 17900 nM. For the same molecule, the GI50 (EKVX NSCLC) was 2290 nM, the TGI (EKVX NSCLC) was 18100 nM and the GI50 (HCC-2998 colon) was 723 nM. The TGI (HCC-2998 colon) was 2710 nM, the GI50 (HCT-116 colon) was 992 nM and the TGI (HCT-116 colon) was 5440 nM. It also gave a GI50 (HCT-15 colon) of 1130 nM, a TGI (HCT-15 colon) of 4220 nM and a GI50 (HL-60(TB) leukemia) of 771 nM. The TGI (HL-60(TB) leukemia) was 2270 nM, the GI50 (HOP-62 NSCLC) was 2800 nM and the TGI (HOP-62 NSCLC) was 30000 nM. It also gave a GI50 (HOP-92 NSCLC) of 2300 nM, a TGI (HOP-92 NSCLC) of 18600 nM and a GI50 (HS 578T breast) of 2120 nM. It also gave a TGI (HS 578T breast) of 18500 nM, a GI50 (HT29 colon) of 1160 nM and a TGI (HT29 colon) of 5990 nM. For the same molecule, the GI50 (IGROV1 ovarian) was 1770 nM, the TGI (IGROV1 ovarian) was 18800 nM and the GI50 (K-562 leukemia) was 1140 nM. It also gave a TGI (K-562 leukemia) of 11100 nM, a GI50 (KM12 colon) of 1540 nM and a TGI (KM12 colon) of 21600 nM. The GI50 (LOX IMVI melanoma) was 852 nM, the TGI (LOX IMVI melanoma) was 4450 nM and the GI50 (M14 melanoma) was 1140 nM. It also gave a TGI (M14 melanoma) of 4660 nM, a GI50 (MALME-3M melanoma) of 888 nM and a TGI (MALME-3M melanoma) of 3220 nM. For the same molecule, the GI50 (MCF7 breast) was 751 nM, the TGI (MCF7 breast) was 2790 nM and the GI50 (MDA-MB-231 breast) was 3880 nM. For the same molecule, the TGI (MDA-MB-231 breast) was 14600 nM, the GI50 (MDA-MB-435) was 1830 nM and the TGI (MDA-MB-435) was 12900 nM. The GI50 (MDA-MB-468 breast) was 869 nM, the TGI (MDA-MB-468 breast) was 3200 nM and the GI50 (MOLT-4 leukemia) was 699 nM. The TGI (MOLT-4 leukemia) was 3400 nM.
